Experimental data taken from PubChem BioAssay AID2060486 (Molecular Pharmacology Branch, DTP, NCI, 2025).

Test system: IGROV1 complex spheroids (HUVEC, MSC), viability % test/control
Test: Anticancer human tumor IGROV1 cell line growth inhibition [GQUAD];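 note: spheroids exposed to compounds for 7 days before readout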;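 for viability, T/C: 100% = DMSO vehicle control viability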
Conditions: for IC50: curve of first compound; for viability, T/C: stronger effect = lower value
Outline: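 Tumor cells were grown as complex spheroids with HUVEC endothelial cells and mesenchymal stem cells as stroma. G-quadruplex stabilizers were combined with targeted agents over half-log dilutions from near the clinical Cmax, or from 10 microM.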

Cc1cccc(N(C)C(=O)C2C(O)CCN2c2nc(C)cc(C(F)(F)F)c2C#N)c1 (configuration not stated) + CN(C)c1ccc(Nc2c3ccc(NC(=O)CCN4CCCC4)cc3nc3cc(NC(=O)CCN4CCCC4)ccc23)cc1 gave an IC50 (second compound 0.0316 µM) greater than 10 µM, an IC50 (second compound 0.1 µM) greater than 10 µM and an IC50 (second compound 0.316 µM) greater than 10 µM. The IC50 (second compound 1 µM) was greater than 10 µM, the IC50 (second compound 3.16 µM) was 5.48 µM and the IC50 (second compound 10 µM) was less than 0.0316 µM. For the same compound, the viability, T/C (second compound 0.0316 µM, first compound 0.0316 µM) was 101%, the viability, T/C (second compound 0.0316 µM, first compound 0.1 µM) was 75.8% and the viability, T/C (second compound 0.0316 µM, first compound 0.316 µM) was 85.2%. For the same compound, the viability, T/C (second compound 0.0316 µM, first compound 1 µM) was 77.5%, the viability, T/C (second compound 0.0316 µM, first compound 3.16 µM) was 92.5% and the viability, T/C (second compound 0.0316 µM, first compound 10 µM) was 97.1%. For the same compound, the viability, T/C (second compound 0.1 µM, first compound 0.0316 µM) was 93.9%, the viability, T/C (second compound 0.1 µM, first compound 0.1 µM) was 83.2% and the viability, T/C (second compound 0.1 µM, first compound 0.316 µM) was 86.9%. It also gave a viability, T/C (second compound 0.1 µM, first compound 1 µM) of 79.9%, a viability, T/C (second compound 0.1 µM, first compound 3.16 µM) of 95.5% and a viability, T/C (second compound 0.1 µM, first compound 10 µM) of 93.1%. It also gave a viability, T/C (second compound 0.316 µM, first compound 0.0316 µM) of 99.1%, a viability, T/C (second compound 0.316 µM, first compound 0.1 µM) of 79.5% and a viability, T/C (second compound 0.316 µM, first compound 0.316 µM) of 88.5%. The viability, T/C (second compound 0.316 µM, first compound 1 µM) was 70.6%, the viability, T/C (second compound 0.316 µM, first compound 3.16 µM) was 88.9% and the viability, T/C (second compound 0.316 µM, first compound 10 µM) was 96.2%. For the same compound, the viability, T/C (second compound 1 µM, first compound 0.0316 µM) was 86.2%, the viability, T/C (second compound 1 µM, first compound 0.1 µM) was 90.6% and the viability, T/C (second compound 1 µM, first compound 0.316 µM) was 71%. The viability, T/C (second compound 1 µM, first compound 1 µM) was 84.5%, the viability, T/C (second compound 1 µM, first compound 3.16 µM) was 89.3% and the viability, T/C (second compound 1 µM, first compound 10 µM) was 84.7%. For the same compound, the viability, T/C (second compound 3.16 µM, first compound 0.0316 µM) was 83.1%, the viability, T/C (second compound 3.16 µM, first compound 0.1 µM) was 85.2% and the viability, T/C (second compound 3.16 µM, first compound 0.316 µM) was 82.2%. The viability, T/C (second compound 3.16 µM, first compound 1 µM) was 64%, the viability, T/C (second compound 3.16 µM, first compound 3.16 µM) was 71% and the viability, T/C (second compound 3.16 µM, first compound 10 µM) was 33.9%. For the same compound, the viability, T/C (second compound 10 µM, first compound 0.0316 µM) was 43.5%, the viability, T/C (second compound 10 µM, first compound 0.1 µM) was 50.3% and the viability, T/C (second compound 10 µM, first compound 0.316 µM) was 34.3%. The viability, T/C (second compound 10 µM, first compound 1 µM) was 35%, the viability, T/C (second compound 10 µM, first compound 3.16 µM) was 25.7% and the viability, T/C (second compound 10 µM, first compound 10 µM) was 11.7%.
